According to publication PMC12579162, “Synthesized Depside Molecules Suppress the Progression of Colorectal Cancer by Binding VDAC1/PHB/MMP9 Being at the Crossroads of Stemness, Motility, Apoptosis, and Metabolism” (MedComm, 2025):

Columns and labels:
[1] = Pharmacokinetic study in rat; assay type: in vivo, Sprague–Dawley rats; settings: male, Sprague-Dawley, plasma; for AUC(0-inf): read-out: AUCINF obs
Protocol: The stock solution of SB4 and SB5 was prepared at a concentration of 1.0 mg/mL in DMSO. Additionally, the standard solutions for SB4 and SB5 were prepared by diluting with 60% ACN (0.1% formic acid) in distilled water (DW). The final concentrations of the prepared standard solutions were 5, 10, 25, 50, 100, 250, 500, and 1000 ng/mL, and they were prepared in 1.5 mL polyethylene microtubes (Axygen Inc., Union City, CA, USA). Furthermore, quality control samples were manufactured using DMSO, with final concentrations of 15 ng/mL (low quality control), 80 ng/mL (mid quality control), and 800 ng/mL (high quality control) using 60% ACN (0.1% formic acid) in DW. The IS solution (Deucravacitinib) was also prepared in DMSO and diluted to a final concentration of 10 ng/mL in 60% ACN (0.1% formic acid) in DW.
The sample stored at −80°C was dissolved at room temperature, vortexed for 3 s, and a protein precipitation method using ACN was employed. In a 1.5 mL polyethylene microtube, 10 µL of the IS (10 ng/mL) was added to 45 µL of plasma, and 500 µL of ACN was added. Next, the sample was mixed in a vortex (M37610‐33; Barnstead International, USA) for 3 min. Then, 500 µL of the supernatant was centrifuged at 10000 g for 10 min and transferred to a LC vial, from which 10 µL was injected into the LC–MS/MS system.
The LC–MS/MS system comprises a SCIEX Triple Quad 6500+ system (Melbourne, Australia) coupled with a Shimadzu Nexera series SCL‐40 system controller, DGU‐405 degassing unit, LC‐40D X3 solvent delivery module, SIL‐40C X3 autosampler, and CTO‐40C column oven (Melbourne, Australia).
Chromatographic separations were performed using a Synergi 4 µm Hydro‐RP 80 Å, LC Column (30 × 2 mm). The mobile phase consisted of 0.1% FA in DW and ACN in 0.1% FA. The optimal flow rate was 0.5 mL/min, and the linear gradient elution profile was as follows: 0–0.5 min 20% B, 0.5–1.0 min 80% B, 1.0–2.0 min 80% B, 2.0–2.5 min 20% B, 2.5–3.0 min 20% B. The injection volume was 5 µL, and the total analysis time per sample was 3.0 min. The column oven temperature was maintained at 40°C.
The sample was ionized by an electrospray ionization source. The mass spectrometer was operated in positive ion mode with MRM scan mode for high sensitivity and selectivity. The turbo ion gas temperature was set at 400°C. To optimize the source parameters and compound parameters, a standard solution of 10 ng/mL was injected into the mass spectrometer at a rate of 7 µL/min through an infusion pump. The MRM transitions selected for quantification were m/z 375.075 to 150.100 for DA, m/z 447.113 to 415.200 for SB‐04, m/z 461.119 to 429.100 for SB‐05, and m/z 426.093 to 358.000 for the IS (Deucravacitinib). The system operating programs were Analyst software (version 1.7.2) and Chromelon.
The animal testing procedure was approved by the Animal Management Committee of Dankook University (21‐038). Seven‐week‐old male Sprague–Dawley rats (weighing 250–290 g) were purchased from Samtaco Inc. (Osan, South Korea). All rats were housed randomly in groups of four, maintained under appropriate lighting and room conditions (22 ± 2°C, relative humidity 50 ± 10%, with a 12‐h light/dark cycle). Prior to the experiments, the rats had free access to food (Samtaco Inc.) and water in their cages. The animal experiments were conducted after a minimum environmental adaptation period of 1 week. On the day of the experiments, the jugular vein of each rat was cannulated individually with polyethylene tubing (Clay Adams, Parsippany, NJ, USA) under anesthesia. The cannula was exteriorized to the dorsal side of the neck, where the cannula terminated with a long silastic tubing (Dow Corning, Midland, MI, USA). The silastic tube was covered with a wire to allow free movement of the rat. Each rat was housed individually in a rat metabolic cage (Daejong Scientific Company, Seoul, Korea) and was allowed to recover from anesthesia for 4–5 h before the study began. The rats were not restrained during the experimental period. […]

[2] = test system: CRC cells (CaCo2, DLD1, HCT116, HT29, and SW620); experiment: Spheroid formation assay, CRC cell lines; assay type: cell-based, human; settings: 2.5 and 5 µM, 10–14 days
Protocol: Monolayer cells were separated into single‐cell suspensions at around 70% confluence using a solution of trypsin. After that, the cells were added to N2‐supplemented DMEM/F12 that contained human basal fibroblast growth factor and human recombinant epidermal growth factor. Cells seeded at a density of 5 × 10^3 cells/well in ultra‐low attachment 24‐well plates (Corning Inc., Corning, NY, USA). After 10–14 days of culture, spheres were quantitated by inverted phase contrast microscopy. The relative sphere formation ability was calculated through the IMT iSolution software (IMT iSolution Inc., Northampton, NJ, USA) measuring the pixel intensity of the sphere area randomly in each plate.

[3] = test system: DLD1 cells; experiment: MTT cell viability, DLD1; assay type: cell-based; settings: Homo sapiens, DLD-1; 48 h, MTT assay
Protocol: Cells (3 × 10^3 cells/well) were seeded on a 96‐well plate, grown overnight, and then treated with compounds at indicated concentrations for 48 h. After incubation with MTT for 4 h at 37°C, cells were lysed with 150 µL of DMSO (Sigma–Aldrich, St. Louis, USA). Absorbance was measured at 570 nm on a microplate reader with the Gen5 software (v.2.03.1; BioTek, Winooski, VT, USA).

Compound	AUC(0-t) ([1]; IP 10 mg/kg) [µg·h/mL]	Cmax ([1]; IP 10 mg/kg) [µg/mL]	Tmax ([1]; IP 10 mg/kg) [h]	AUC(0-inf) ([1]; IP 10 mg/kg) [µg·h/mL]	AUC(0-t) ([1]; PO 10 mg/kg) [µg·h/mL]	Cmax ([1]; PO 10 mg/kg) [µg/mL]	Tmax ([1]; PO 10 mg/kg) [h]	spheroid formation [2]	IC50 [3] [µM]
COCCOc1c(C)c(OC(=O)c2c(C)cc(OC)c(C)c2OC)cc(C)c1C(=O)OC [SB4, 4-(Methoxycarbonyl)-3-(2-methoxyethoxy)-2,5-dimethylphenyl 2,4-dimethoxy-3,6-dimethylbenzoate]	0.173 ± 0.0163	0.0607 ± 0.0182	0.31 ± 0.13	0.394 ± 0.172	0.113 ± 0.0192	0.0278 ± 0.0147	2.88 ± 2.59	suppressed spheroid formation	4.08
COCCCOc1c(C)c(OC(=O)c2c(C)cc(OC)c(C)c2OC)cc(C)c1C(=O)OC [SB5, 4-(Methoxycarbonyl)-3-(3-methoxypropoxy)-2,5-dimethylphenyl 2,4-dimethoxy-3,6-dimethylbenzoate]	0.108 ± 0.0179	0.04563 ± 0.00031	0.31 ± 0.13	0.209 ± 0.0324	0.0871 ± 0.0118	0.022 ± 0.00801	4.13 ± 2.59	suppressed spheroid formation	57.8
